The values below come from patent publication US10858684B2, “Mutant microorganisms resistant to lactose killing” (Inbiose N.V., priority 2014, dated 2020).

Where two headings read alike, the source gives them in different places.

This experiment concerns E. coli lactose permease expression cassette mutant strains. Briefly: Chloramphenicol resistance / MIC of strains with lactose permease translationally coupled to chloramphenicol resistance gene. Format: cell-based, Escherichia coli. The note with it: for MIC: Escherichia coli. The text has this:
Two strains were constructed in which lactose permease was knockout out from the genome. In both strains a pSC101 plasmid containing a kanamycin resistance gene was transformed, with the difference that one of the plasmids contained a constitutively expressed lactose permease as described in Example 1 and 2, resulting in a reference strain MG1655ΔlacY pSC101_kan and the lacY_cat translational coupled strain MG1655ΔlacY pSC101_kan_lacYsynthetic_cat as described in Example 4 and FIG. 5. Both strains were grown in a minimal medium as described above at different chloramphenicol concentrations (between 0 and 30 mg/l).
This method is however limited by the expression of the beta galactosidase gene which becomes the rate limiting step for growth. Therefore, the expression of the lactose permease gene was measured via the above described translational coupling system described above. The minimal inhibition concentration (MIC) for chloramphenicol is indicative for the expression of the lactose permease gene and this was determined for each of the cassettes. The lowest MIC that still resulted into the same growth rate compared to the wild type was used as an indicator for the expression of the wild type lactose permease expression.

For the compound `O=C(N[C@H](CO)[C@H](O)c1ccc([N+](=O)[O-])cc1)C(Cl)Cl` [chloramphenicol], the MIC is, setting by setting: (read-out: minimal inhibition concentration (MIC), cassettes with the lowest MIC that have the same growth rate as the wild type strain) ~20 µg/mL; (read-out: minimal inhibition concentration (MIC), mutant strains with a slightly lower growth rate) 15 to 20 µg/mL; (read-out: minimal inhibition concentration (MIC), mutant strains with equal or higher growth rate) 20 to 80 µg/mL. Moreover, the “growth inhibition of reference strain MG1655ΔlacY pSC101_kan versus lacY_cat coupled strain” value (chloramphenicol 0 to 30 mg/l, minimal medium, 48 and 92 hours) is “inhibited at a lower chloramphenicol concentration than the mutant lacY_cat translational coupled strain”.
